US20060247220A1, “Preventing the crystallization of cholesterol using oxysterols” (priority 2003, published 2006)

Experiments:
[1] = test system: rabbits; settings: fed in diet; cited from earlier work
[2] = test system: rabbits; settings: fed in diet; cited from earlier work; remark: listed apart in the source
[3] = Crystallization of cholesterol from solution in sunflower seed oil at room temperature; type: physicochemical
Experimental: Cholesterol was partially oxidized by heating in an oven with air at 80° C.
A 140 mg portion of the partially oxidized cholesterol was placed in a glass tube and 2.6 mL sunflower seed oil was added. The same amount of oil was added to tubes containing 60, 80, 100, 120 and 140 mg of pure cholesterol. All the tubes were held in a heating block at 95° C. until the sterols were dissolved. They were then held at room temperature (about 24° C.) for at least 3 weeks.
To determine the maximum solubilizing effect of the oxysterols, 35 mg and 70 mg of pure cholesterol were added to tubes containing 140 mg of the partially oxidized cholesterol, and 2.6 mL oil was added to each tube. The mixtures were brought into solution as described above, and held at room temperature.

[4] = test system: rabbits; settings: in the diet, hydroperoxides added to cholesterol; cited from earlier work

For CC(C)CCC[C@@H](C)[C@H]1CC[C@H]2[C@@H]3CC=C4C[C@@H](O)CC[C@]4(C)[C@H]3CC[C@]12C [pure cholesterol, cholesterol], the atherosclerotic lesions [1] is given as “both elevated serum cholesterol and lesions”, the atherogenicity [2] is given as “much more atherogenic to rabbits than oxysterols or a mixture of cholesterol and oxysterols” and the crystallization on standing ([3]; 60 mg pure cholesterol in 2.6 mL sunflower seed oil, room temperature) is given as “crystallization did not occur”. For the same compound, the “time to complete crystallization” value ([3]; 80, 100, 120 and 140 mg pure cholesterol in 2.6 mL sunflower seed oil, room temperature (about 24° C.)) was “about 1 hour” and the “atheroma / lesion formation in the aortas” value [4] was “extensive atheroma formation”.
